{"source": "patent US12576157B2", "about": "“Peptide saporin conjugate for the treatment of cancer” (SRI International, priority 2017, dated 2026)", "key": {"NSCLC tumor": {"system": "NSCLC tumor", "assay": "H1299.3 15-mer in vivo tumor targeting", "description": "(§1) A modified MGS peptide (SEQ ID NO: 31) that fuses amino acids 1-5 and 11-20 of the original MGS peptide: LQWRRNFGVWARYRL (SEQ ID NO: 31) was assessed."}, "[1]": {"assay": "Solubility of H1299.3 15-mer", "assay_type": "physicochemical", "details": "effect of acetylation"}, "[2]": {"system": "NSCLC and other tumor cells", "assay": "Peptide binding/internalization in tumor cell lines", "assay_type": "cell-based, human", "description": "(§2) Flow Cytometry. Biotinylated peptide was conjugated to streptavidin-R-phycoerythrin (1:1) for 30 min at RT. The remaining binding sites on streptavidin were quenched with RPMI 1640 and solution diluted to 25 nM. Tumor cells were grown to 90% confluency in a 12 well plate, then incubated with 500 μl peptide-dye conjugate for 1 hour at 37 C. After 1 hour, peptide was removed and the cells were washed 3× with PBS for 5 min, 2× with acid rinse, and 1×PBS rinse. Added 300 μl trypsin until cells lifted then added 700 μl RPMI+5% FBS to inactivate the trypsin. Cells were transferred to a flow tube, and put on ice in the dark. Flow cytometry was run on BD FACSCelesta and data were analyzed on Flowing software. A region containing <5% of the cells in the negative control is established and the McGuire score is calculated for each sample by multiplying the % of positive cells by the fluorescence intensity.\n(§3) For the flow cytometry experiments, cells are treated with a peptide (e.g., a MGS peptide) that has a dye on it for one hour. If the peptide enters the cell(s), the dye will also enter the cell(s) (see, FIG. 11). Next, the cells are washed and placed in a tube to run flow cytometry. The flow cytometer can measure the brightness of 10,000 or more individual cells.\nPhage blocking was used as a control. HCC15.2 was internalized by a specific panel of cell lines and not others."}, "LC line H1299": {"system": "LC line H1299", "assay": "Flow cytometry binding of peptide-dye conjugate, H1299", "assay_type": "cell-based, human", "description": "as §2, §3"}, "H1299 cells": {"system": "H1299 cells", "assay": "Confocal microscopy, organelle co-localization", "assay_type": "cell-based, human", "details": "over time", "description": "Confocal Microscopy. Plasmids with organelle specific markers labeled with GFP were purchased from Addgene and electroporated into H1299 cells. After G418 selection, GFP-labeled tumor cells were plated on 8 well chamber slides on the day previous to the study. Biotinylated peptide was conjugated to streptavidin-AlexaFluor 555 (1:1) for 30 min at RT and quenched with RPMI, then added to the wells at 50 nM. After 1 hour incubation cells were washed for 5 min 3× with PBS, 2× acid rinses, and 1×PBS rinse. Cells were fixed in 2% formaldehyde for 10 min, washed with PBS, stained with DAPI in mounting media and coverslip was added. Microscopy was acquired on a Zeiss LSM 700 with a Pln Apo 63×/1.4 oil DIC III objective. Compressed images were obtained using ImageJ software maximal intensity projections.\nFor the microscopy experiments, cells are treated with a peptide (e.g., a MGS peptide) that has a dye on it for one hour. If the peptide enters the cell(s), the dye will also enter the cell(s) (see, FIG. 1). Next, the cells are washed and fixed to glass plate. Other parts of the cell (e.g., cell membrane, organelles or nucleus) are stained. Fluorescent microscopy is performed to assess the dyes in the cells. Confocal microscopy is used to take a series of sliced images that can be used to build a 3D picture (like an MRI)."}, "normal HBEC's": {"system": "normal HBEC's", "assay": "Flow cytometry binding of peptide-dye conjugate, normal HBEC", "assay_type": "cell-based", "description": "as §2, §3"}, "cancer cells [3]": {"system": "cancer cells", "assay": "H1299.3 15-mer cell binding and autophagosome co-localization", "assay_type": "cell-based", "description": "as §1"}, "cancer cells [4]": {"system": "cancer cells", "assay": "Cancer cell killing assay", "assay_type": "cell-based", "details": "unconjugated", "description": "A cancer cell killing assay was performed (see, FIG. 22). Cancer cells were put into a dish. After 24 hours, cells were given different doses of peptide-saporin for 1 hour. Peptide-saporin was washed off and cells were left for 72 more hours. Assay to measure live cells performed."}}, "note": "Residues, ends and D or L forms follow the SMILES beside them.", "data": [{"compound": "CC(=O)N[C@@H](CC(C)C)C(=O)N[C@@H](CCC(N)=O)C(=O)N[C@@H](Cc1c[nH]c2ccccc12)C(=O)N[C@@H](CCCNC(=N)N)C(=O)N[C@@H](CCCNC(=N)N)C(=O)N[C@@H](CC(N)=O)C(=O)N[C@@H](Cc1ccccc1)C(=O)NCC(=O)N[C@H](C(=O)N[C@@H](Cc1c[nH]c2ccccc12)C(=O)N[C@@H](C)C(=O)N[C@@H](CCCNC(=N)N)C(=O)N[C@@H](Cc1ccc(O)cc1)C(=O)N[C@@H](CCCNC(=N)N)C(=O)N[C@@H](CC(C)C)C(=O)O)C(C)C", "note": "[1299.3 Ac-15mer] (Ac-LQWRRNFGVWARYRL-OH; N-terminus and C-terminus assumed)", "values": [{"measurement": "degradation in vivo", "setting": "NSCLC tumor; effect of acetylation", "value": "protects degradation in vivo"}, {"measurement": "solubility", "setting": "[1]", "value": "improves solubility"}]}, {"compound": "FHAVPQSFYT [SEQ ID NO: 3]", "values": [{"measurement": "effect of acetylation on binding of the truncated peptide", "setting": "[2]; N-terminal acetylation", "value": "improves binding"}]}, {"compound": "FHAVPQSFYTAP [HCC15.2]", "values": [{"measurement": "binding by flow cytometry", "setting": "LC line H1299", "value": "binds"}, {"measurement": "binding to cell line panel", "setting": "[2]", "value": "binds to a specific subset of NSCLC and other tumor cells"}, {"measurement": "internalization", "setting": "[2]; at 4° C.", "value": "does not internalize"}, {"measurement": "effect of tetramerization on receptor mediated internalization", "setting": "[2]; tetramer compared to monomer", "value": "does not significantly improve"}, {"measurement": "internalization", "setting": "[2]; treating with trypsin 2 min before adding peptide", "value": "no internalization"}, {"measurement": "lysosome localization", "setting": "H1299 cells", "value": "accumulates in the lysosome over time"}, {"measurement": "binding by flow cytometry", "setting": "normal HBEC's", "value": "does not bind"}]}, {"compound": "LQWRRNFGVWARYRL [SEQ ID NO: 31]", "values": [{"measurement": "tumor targeting in vivo", "setting": "NSCLC tumor; NSCLC tumor in an animal", "value": "hones to a NSCLC tumor"}, {"measurement": "reduction in heart, lung and kidney tumors", "setting": "NSCLC tumor; in vivo", "value": "> 2", "unit": "fold"}, {"measurement": "cancer specificity", "setting": "cancer cells [3]; cancer versus normal cell binding", "value": "maintains its cancer specificity"}, {"measurement": "trafficking to the autophagosome", "setting": "cancer cells [3]; versus original peptide", "value": "increases its ability to traffic to the autophagosome"}]}, {"compound": "saporin: ribosome inactivating protein (RIP, 34 KD) with no cell entry domain; plant toxin", "values": [{"measurement": "cell entry", "setting": "cancer cells [4]", "value": "did not enter the cell by itself"}]}]}
